Laboratory results as given in patent US8835495B2, “Pharmaceutical composition comprising cyclobenzaprine and aceclofenac in association” (Incrementha P, D & I Pesquisa, Desenvolvimento e Inovacao …, priority 2006, dated 2014).
Where a name gives a salt, the structure may show the parent alone.

Experiment: Comparative stability study of cyclobenzaprine hydrochloride and aceclofenac together and isolated (opened glass flasks, oven)
Type: physicochemical
Conditions: oven at 50° C. and 90% relative moisture, after 30 days

Question: For `CN(C)CCC=C1c2ccccc2C=Cc2ccccc21` [cyclobenzaprine hydrochloride, 3-(5H-dibenzo[a,d]cyclohepten-5-ylidene)-N,N-dimethyl-1-propanamine], which “content of active ingredient(s) by chromatographic analysis” value is on record?
Answer: remained unaltered

Question: With `O=C(O)COC(=O)Cc1ccccc1Nc1c(Cl)cccc1Cl` [aceclofenac, 2-[2-[2-[(2,6-dichlorophenyl)amino]phenyl]acetyl]oxyacetic acid] as the compound, how does the “content of active ingredient(s) by chromatographic analysis” value read?
Answer: remained unaltered
